This is an account of results in patent US20030055104A1, “Method, composition and kit to remove lice ova from the hair” (priority 2000, published 2003).

The subject of series [1] is nit attached to human hair strand. Kind of series: Force required to dislodge a nit from a treated hair strand with a nit comb (INSTRON 1123 / CORREX Gram Gage). The arrangement: species or system lice. The settings on record: in vitro studies. Here is the method:
FIG. 1 is a diagram of the test setup whereby the force required to dislodge a nit from a human hair strand with a nit comb was measured.
FIG. 2 is a view showing the positioning of the nit and hair strand between the teeth of the comb shown in the test setup of FIG. 1.
The nit-loosening effectiveness of the novel compositions and the methods of treatment employing them were tested extensively using an INSTRON® 1123 Universal Testing Instrument (Instron Corp. Canton, Mass.). This instrument, in conjunction with a CORREX® Gram Gage (SPI, Switzerland), measures the force required to loosen nits from a hair shaft and records it on paper.
Laboratory tests were performed to measure the decrease in the combing force required to remove nits from hair strands treated with various compositions of the invention as compared with controls and with prior art egg-loosening compositions.
1. Hair strand 10 with nit 12 attached.
2. Fine tooth plastic nit comb 14.
3. Controls and test compositions.
4. INSTRON® 1123 Universal Testing Instrument 16 (Instron Corp., Canton, Mass.) with a 0-50 kg load cell 18.
5. CORREX® Gram Gage 20-2-15 g with flat tip (SPI, Switzerland).
6. Clamp plate assembly 22.
7. […]
e) Start the Instron, and the force required to loosen the nits will be recorded by the paper chart recorder 30, and can also be read on the Gram Gage 20. […]

For series [2] the following is noted: cited from earlier work.

For the compound `CO[C@H]1CO[C@H]2[C@@H]1OC[C@H]2OC` [Dimethyl isosorbide, 1,4:3,6 dianhydro-2,5-di-o-methyl-D-glucitol], the “nit-loosening effectiveness (in words)” value in series [1] was “good nit-loosening utility”. For the same compound, in series [2], the “solubility (in words)” value was “water and oil-soluble”.
